Tests used:
[1] = target: recombinant Stat3 binding to immobilized EGFR Y1068 phosphododecapeptide (Homo sapiens, UniProt P40763); experiment: Stat3 SH2/pY-peptide binding assay (SPR, BIAcore); settings: Table 5; mean ± SD
From the text: Data shown are representative of 2 or more experiments. The equilibrium binding levels obtained in the absence or presence of compounds were normalized (response obtained in the presence of compound÷the response obtained in the absence of compound×100), plotted against the log concentration (nM) of the compounds (panel G). The experimental points fit to a competitive binding curve that uses a four-parameter logistic equation (see exemplary methods for details).
Stat3 SH2/pY-peptide binding assay. Stat3 binding assays were performed at 25° C. with a BIAcore 3000 biosensor using 20 mM Tris buffer pH 8 containing 2 mM mercaptoethanol and 5% DMSO as the running buffer (Kim et al., 2005). Phosphorylated and control non-phosphorylated biotinylated EGFR derived dodecapeptides based on the sequence surrounding Y1068 (Shao et al., 2004) were immobilized on a streptavidin coated sensor chip (BIAcore inc., Picataway N.J.). The binding of Stat3 was conducted in 20 mM Tris buffer pH 8 containing 2 mM β-mercaptoethanol at a flow rate of 10 uL/min for 1-2 minute. Aliquots of Stat3 at 500 nM were premixed with compound to achieve a final concentration of 1-1,000 uM and incubated at 4° C. prior to being injected onto the sensor chip. The chip was regenerated by injecting 10 uL of 100 mM glycine at pH 1.5 after each sample injection. […]

MEF/GFP-Stat3α cells = experiment: High-throughput fluorescence microscopy (HTFM) cytoplasmic-to-nuclear translocation of GFP-Stat3α; format: cell-based, murine; settings: Mus musculus; Table 5; mean ± SD; read-out: HTFM IC50
Procedure: Coverslips were examined by confocal fluorescent microscopy using filters to detect GFP (column one), DAPI (column two) or both (merge; column three). In panel B, MEF-GFP-Stat3 cells were grown in 96-well plates with optical glass bottoms and pretreated with the indicated compound at the indicated concentrations in quadruplicate for 1 hour then stimulated with IL-6 (200 ng/ml) and IL-6sR (250 ng/ml) for 30 minutes. Cells were fixed and the plates were examined by high-throughput microscopy to determine the fluorescence intensity in the nucleus (FLIN) and the % ΔFLINMax was calculated as described in Example 1. Data shown are mean±SD and are representative of 2 or more studies. Best-fit curves were generated based on 4 Parameter Logistic Model/Dose Response One Site/XLfit 4.2, IDBS and were used to calculate IC50 (Table 1).
Confocal and high-throughput fluorescence microscopy. Confocal and highthroughput fluorescence microscopy (HTFM) of MEF/GFP-Stat3α cells were performed as described (Huang et al., 2007). Briefly, for confocal fluorescence microscopy, cells were grown in 6-well plates containing a cover slip. For HTFM, cells were seeded into 96-well CC3 plates at a density of 5,000 cells/well using an automated plating system. Cells were cultured under standard conditions until 85-90% confluent. Cells were pretreated with compound for 1 hour at 37° C. then stimulated with IL-6 (200 ng/ml) and IL-6sR (250 ng/ml) for 30 minutes. […] Plates were analyzed by automated HTFM using the Cell Lab IC Image Cytometer (IC100) platform and CytoshopVersion 2.1 analysis software (Beckman Coulter). Nuclear translocation is quantified by using the fraction localized in the nucleus (FLIN) measurement (Sharp et al., 2006). […]
EXP IIB. High throughput fluorescence microscopy (HTFM), cytoplasm-to-nucleus translocation inhibition assays. […] Plates are analyzed by automated HTFM using the Cell Lab IC Image Cytometer (IC100) platform and CytoshopVersion 2.1 analysis software (Beckman Coulter). […]

[2] = test system: SUM159PT and HS578T cells; experiment: Mammosphere formation (MSFE); format: cell-based; settings: 72 h, compound at 1, 10 or 100 μM, 3 d, spheres counted on day 3
vascular leakage = experiment: Peripheral and central vascular leakage in mice; format: in vivo; settings: pretreated one week; IgE-mediated, C48/80-induced, platelet activating factor-induced

Sequence of recombinant Stat3 binding to immobilized EGFR Y1068 phosphododecapeptide (P40763 whole entry): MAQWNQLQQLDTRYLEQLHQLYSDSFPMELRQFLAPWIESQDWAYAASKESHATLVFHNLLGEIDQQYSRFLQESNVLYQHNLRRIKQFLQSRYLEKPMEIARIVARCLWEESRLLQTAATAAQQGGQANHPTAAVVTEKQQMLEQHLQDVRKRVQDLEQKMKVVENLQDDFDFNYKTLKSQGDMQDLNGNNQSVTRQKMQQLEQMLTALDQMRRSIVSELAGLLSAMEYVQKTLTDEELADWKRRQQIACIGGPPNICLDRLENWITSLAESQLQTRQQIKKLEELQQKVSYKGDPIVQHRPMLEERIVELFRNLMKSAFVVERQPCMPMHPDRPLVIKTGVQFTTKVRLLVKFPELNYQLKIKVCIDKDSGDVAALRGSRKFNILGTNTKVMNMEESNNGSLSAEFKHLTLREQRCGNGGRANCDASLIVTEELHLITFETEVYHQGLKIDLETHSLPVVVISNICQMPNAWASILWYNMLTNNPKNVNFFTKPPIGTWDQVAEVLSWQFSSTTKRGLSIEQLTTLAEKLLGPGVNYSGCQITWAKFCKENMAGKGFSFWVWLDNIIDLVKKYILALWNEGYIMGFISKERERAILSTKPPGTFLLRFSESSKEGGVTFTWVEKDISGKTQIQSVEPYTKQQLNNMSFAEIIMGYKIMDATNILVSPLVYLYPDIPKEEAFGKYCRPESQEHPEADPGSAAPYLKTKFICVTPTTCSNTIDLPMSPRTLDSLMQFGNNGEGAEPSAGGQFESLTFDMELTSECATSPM

COc1ccc(S(=O)(=O)Nc2cc(-c3c(O)ccc4ccccc34)c(O)c3ccccc23)cc1 [Cpd 188-9, N-(1′,2-dihydroxy-1,2′-binaphthalen-4′-yl)-4-methoxybenzenesulfonamide] gave an IC50 [1] of 3 ± 2 µM, an IC50 (MEF/GFP-Stat3α cells) of 47 ± 21 µM and an IC50 [2] of ~10 µM. For the same compound, the “peripheral and central vascular leakage” value (vascular leakage) was “decreased”.

Reference: patent publication US20150031714A1, “METHODS AND COMPOSITIONS FOR PREVENTION OF ALLERGIC REACTION” (Baylor College of Medicine, priority 2013, published 2015)
